Test results reported in patent publication US12070457B2, “Substituted pyridines, pyridazines, pyrimidines, and 1,2,3-triazines as bruton's tyrosine kinase inhibitors” (HUTCHISON MEDIPHARMA LIMITED, priority 2020, dated 2024).

What was measured:
BTK recombinant protein = BTK recombinant protein (Homo sapiens (Human), UniProt Q06187); assay: Determination of biochemical BTK (Z'-LYTE kinase assay)
From the text: Example 2 Determination of Biochemical BTK
1. Reagents and Materials
• BTK recombinant protein: Invitrogen, Cat #PV3363; • Z′-LYTE® kinase test kit-tyrosine 1 peptide: Invitrogen, Cat #PV3190; • 384-well low-flange black flat-bottomed polystyrene NBS microplate, no lid, no sterilization: Corning, Cat #3575; • 96-well polystyrene conical-bottomed MicroWell™ plate, sealed with a lid: Thermo Scientific™ Nunc™, Cat #277143; • Envision multi-mode plate reader: PerkinElmer; • Mixmate® shaker: Eppendorf; • TS-2102 shaking incubator: TENSUC; 2. Methods
Z′-LYTE® biochemical assay employs a fluorescence resonance energy transfer (FRET)-based, coupled-enzyme format and is based on the differential sensitivity of phosphorylated and non-phosphorylated peptides to proteolytic cleavage. Both ends of the short peptide substrate are labeled with two fluorescent groups to form a FRET paired combination. In the primary reaction (the Kinase Reaction), the kinase transfers the γ-phosphate of ATP to a single […] residue on the short peptide substrate. In the secondary reaction (the development reaction), the non-phosphorylated short peptides were recognized and cleaved by a site-specific protease (the development reagent). Phosphorylated short peptides can resist such cleavage. Cleavage of short peptides can disrupt the donor (such as coumarin) and receptor fluorophores (fluorescein) on the short peptides, while the phosphorylated short peptides can maintain FRET. The calculation method of the ratio is as follows, and the ratio of the respective emission signals generated by the donor fluorophores emitted (after excitation at 400 nm) to the receptors is calculated. Emission signal ratio=emitted light by coumarin (445 nm)/emitted light by fluorescein (520 nm). If the FRET short peptide is phosphorylated (such as no kinase inhibitor), the emitted light ratio will remain in a lower level. If the FRET short peptide is non-phosphorylated (such as kinase inhibitor), the emitted light ratio will be in a higher level. In this way, the inhibitory effects of different compound inhibitors on BTK kinase activity would be distinguished.
The experiment were carried out according to the instructions of the Z′-LYTE® kinase test kit-tyrosine 1 peptide. Reagent preparation: 1.33× kinase buffer: 5× kinase buffer was diluted with water to 1.33× kinase buffer; an enzyme solution: the kinase was dissolved in 1.33× kinase buffer with the final working concentration being 3.32 nM; a short peptide solution: a short peptide stock solution (1 mM dissolved in DMSO) was dissolved in 1.33× kinase buffer with the final working concentration being 2 μM; Z′-LYTE Tyr01 phosphorylated short peptide solution, 0.6 μl of stock solution (1 mM dissolved in DMSO) was dissolved in 149.4 μl of 1.33× kinase buffer; an ATP solution: an ATP stock solution (10 mM aqueous solution) was dissolved in 1.33× kinase buffer with the final working concentration being 32 μM; a color-developing solution: color-developing solution B was dissolved in color-developing buffer with the final working concentration being 1× color-developing solution; 4× compound preparation: the compound was diluted in 3-fold gradient concentration to finally obtain 4% DMSO aqueous solution containing different concentrations of the compound, with the final working concentration being 3000, 1000, 333.33, 111.11, 37.04, 12.35, 4.12, 1.37 nM, 8 concentration points in total.
Specific steps of the experiment: In the experiment, there were three control groups, each with 8 replicate wells, which were C1 100% inhibition group (no ATP), C2 0% inhibition group (with ATP), and C3 100% phosphorylation group, respectively. 2.5 μl of serially diluted compound was added to each well of a 384-well plate, with double replicate wells, and 4% DMSO solution was added to wells C1, C2, and C3. […]

[1] = Stability test in liver microsomes (mouse); type: in vitro ADME; details: 1 μM compound; for stability in mouse liver microsomes compared with reference GDC-0853: 0.5 mg/mL liver microsomes, 30 minutes incubation; for MLM, percentage of remaining compound after 30 minutes of incubation: mouse liver microsomes
From the text: (§1) Example 5 Stability Test in Liver Microsomes
(§2) Both male CD-1 mouse pooled liver microsomes and male SD rat pooled liver microsomes were purchased from BioreclamationIVT Corporation, USA.
(§3) Phenacetin, glucose-6-phosphate dehydrogenase (G-6-PDH) and nicotinamide adenine dinucleotide phosphate (NADP) were all purchased from Sigma-Aldrich Corporation, USA. Glucose-6-phosphate (G-6-P) was purchased from Shanghai Eybridge Chemical Technology Co., Ltd.
(§4) Ten mM test compound stock solution: a certain amount of test compound was weighed, and dissolved with an appropriate volume of DMSO to prepare a stock solution with a concentration of 10 mM for use.
(§5) Reaction stopping solution: an appropriate amount of internal standard compound phenacetin was dissolved in acetonitrile to prepare a reaction stopping solution with a concentration of 1000 ng/mL for use at room temperature.
(§6) The test compound stock solution was diluted with an organic solvent (usually a mixture of acetonitrile, methanol and water with various ratios, depending on the solubility of the compound, if necessary, 1 N hydrochloric acid or 1 N sodium hydroxide would be added to facilitate solubilization) to the 0.1 mM (the final concentration of the compound in the reaction system was 1 μM) and the concentration percentage of the organic solvents in the incubation system no more than 1% (wherein the percentage of DMSO was required to be no more than 0.1%). An appropriate amount of 100 mM NADP, 500 mM G-6-P and 100 Unit/mL G-6-PDH were mixed and diluted with ultrapure water (the final system contains 1 mM NADP, 5 mM G-6-P and 1 Unit/mL G-6-PDH), pre-incubated in a 37° C. water bath for 10 minutes and then placed on ice for use as a NADPH regeneration solution. 20 mg/mL liver microsomes solution and 200 mM phosphate buffer was mixed, and diluted with ultrapure water to give a liver microsomes solution containing 2.5 mg/mL liver microsomes (the final concentration of the reaction system is 0.5 mg/mL) and 50 mM phosphate buffer. The diluted liver microsomes solution was mixed with 0.1 mM compound solution, a mixture of 100 mM EDTA, 300 mM MgCl2 solution, 200 mM phosphate buffer (the final system was 3 mM MgCl2, 1 mM EDTA and 50 mM phosphate buffer) and water in an appropriate volume was added. Finally, the NADPH regeneration solution was added, then the reaction solution was placed in a 37° C. water bath to start the reaction (the reaction time was 30 minutes), and the reaction was stopped by adding the ice-cold acetonitrile reaction stopping solution containing the internal standard. The 0-minute sample was not incubated in a 37° C. water bath, and its difference from the 30-minute sample further lies in that the ice-cold acetonitrile reaction stopping solution containing the internal standard was added first, and then the NADPH regeneration solution was added. The sample added with the reaction stopping internal standard solution was vortexed and mixed well, and then centrifuged at 4400 rpm for 10 minutes. The supernatant was taken and diluted ten times with 50% methanol for LC-MS/MS analysis.
(§7) LC-MS/MS was used to determine the concentration of the compound in the sample. The percentage of the remaining compound after 30 minutes of incubation comparing with that in the 0-minute sample was calculated using the peak area ratio of the compound to the internal standard as an indicator, to evaluate the metabolic stability of the compound.
(§8) Instrument: API4500, API4000 or LTQ Mass Spectrometer; the liquid phase is UHPLC system (Shimadzu LC-30 AD, model Nexra X2) including liquid delivery unit, column thermostat, detector and autosampler; or Agilent 1200 Binary Pump series HPLC and CTC Autosampler.
(§9) Chromatographic column: Waters XSELECT Hss T3 C18 (2.5 μm, 2.1×50 mm) or […] (5 μm, 2.0×50 mm)
(§10) Mobile phase: • A: water with 0.1% FA (formic acid) (with or without 0.1% ACN (acetonitrile)) • B: acetonitrile with 0.1% FA (formic acid).

[2] = Stability test in liver microsomes (rat); type: in vitro ADME; details: 1 μM compound; for stability in rat liver microsomes compared with reference GDC-0853: 0.5 mg/mL liver microsomes, 30 minutes incubation; for RLM, percentage of remaining compound after 30 minutes of incubation: rat liver microsomes
From the text: as §1, §2, §3, §4, §5, §6, §7, §8, §9, §10

BTK recombinant protein, sequence (Q06187 whole entry): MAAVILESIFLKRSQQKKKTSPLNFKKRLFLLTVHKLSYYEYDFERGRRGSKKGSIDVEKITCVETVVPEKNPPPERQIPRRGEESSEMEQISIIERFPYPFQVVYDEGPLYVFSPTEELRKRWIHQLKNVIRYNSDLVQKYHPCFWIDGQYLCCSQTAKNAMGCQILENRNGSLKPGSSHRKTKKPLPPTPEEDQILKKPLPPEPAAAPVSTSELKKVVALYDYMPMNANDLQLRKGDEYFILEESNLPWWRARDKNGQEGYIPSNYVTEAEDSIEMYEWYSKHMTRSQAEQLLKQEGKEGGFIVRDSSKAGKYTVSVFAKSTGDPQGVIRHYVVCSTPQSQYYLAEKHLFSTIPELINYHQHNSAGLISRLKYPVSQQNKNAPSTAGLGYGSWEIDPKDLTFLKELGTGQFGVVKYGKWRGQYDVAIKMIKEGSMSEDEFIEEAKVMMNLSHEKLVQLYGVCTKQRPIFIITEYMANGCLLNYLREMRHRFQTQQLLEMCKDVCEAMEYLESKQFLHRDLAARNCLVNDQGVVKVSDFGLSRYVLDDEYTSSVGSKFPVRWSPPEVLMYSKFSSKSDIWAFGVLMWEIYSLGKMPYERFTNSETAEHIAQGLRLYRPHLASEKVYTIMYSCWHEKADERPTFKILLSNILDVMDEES

| Compound | IC50 (BTK recombinant protein) | stability in mouse liver microsomes compared with reference GDC-0853 [1] | MLM, percentage of remaining compound after 30 minutes of incubation [1] | stability in rat liver microsomes compared with reference GDC-0853 [2] | RLM, percentage of remaining compound after 30 minutes of incubation [2] |
| --- | --- | --- | --- | --- | --- |
| C[C@H]1CN(C2COC2)CCN1c1ccc(Nc2nc(-c3ccnc(-n4ccn5c6c(cc5c4=O)CC(C)(C)C6)c3CO)cn(C)c2=O)nc1 [Compound 20] | 27 nM |  |  |  |  |
| C[C@H]1CN(C2COC2)CCN1c1ccc(Nc2cc(-c3ccnc(-n4ccn5c6c(cc5c4=O)CC(C)(C)C6)c3CO)nn(C)c2=O)nc1 [Compound 22] | 10 nM | better than that of the reference GDC-0853 | 83.4% | better than that of the reference GDC-0853 | 95.6% |
| CCn1cc(Nc2cc(-c3ccnc(-n4ccn5c6c(cc5c4=O)CC(C)(C)C6)c3CO)cn(C)c2=O)nn1 [Compound 24] | 3 nM |  |  |  |  |
| CCn1cc(Nc2cc(-c3ccnc(-n4ccn5c6c(cc5c4=O)CC(C)(C)C6)c3CO)nn(C)c2=O)nn1 [Compound 25] | 8 nM |  |  |  |  |
| Cn1cc(-c2ccnc(-n3ccn4c5c(cc4c3=O)CC(C)(C)C5)c2CO)cc(Nc2ccc(N3CCN(C4COC4)CC3=O)cn2)c1=O [Compound 34] | 5 nM | better than that of the reference GDC-0853 | 89.5% | better than that of the reference GDC-0853 | ~100% |
| COCC(C)n1cc(Nc2nc(-c3ccnc(-n4ccn5c6c(cc5c4=O)CC(C)(C)C6)c3CO)cn(C)c2=O)nn1 (centres unmarked) [Compound 42] | 269 nM |  |  |  |  |
